One may read the MIC as the lowest concentration found to suppress growth. As usually defined, the HC50 is the concentration that lyses half of the red blood cells.

Data on 15 compounds can be found in ChEMBL document CHEMBL5214910, “Rational Design of Dipicolylamine-Containing Carbazole Amphiphiles Combined with Zn2+ as Potent Broad-Spectrum Antibacterial Agents with a Membrane-Disruptive Mechanism” (J Med Chem, 2021).

In brackets after ≈: the same amount, converted by molar mass. Where only a bound is given, the exact number is not on record here.

Data set [1] deals with Acinetobacter baumannii. Put plainly: Antibacterial activity against Acinetobacter baumannii ATCC 17978 assessed as inhIbition of bacterial growth incubated for 24 hrs by Muller hinton broth based dilution assay. It counts as functional.
Data set [2] has as its system Staphylococcus aureus. Put plainly: Antibacterial activity against Staphylococcus aureus ATCC 29213 assessed as inhibition of bacterial growth incubated for 24 hrs by Muller hinton broth based dilution assay. In kind it is functional.
The test system of data set [3] is Staphylococcus aureus. Put plainly: Antibacterial activity against Methicillin-resistant Staphylococcus aureus N315 assessed as inhibition of bacterial growth incubated for 24 hrs by Muller hinton broth based dilution assay. It counts as functional.
Data set [4] relates to Staphylococcus aureus. Put plainly: Antibacterial activity against Methicillin-resistant Staphylococcus aureus NCTC10442 assessed as inhibition of bacterial growth incubated for 24 hrs by Muller hinton broth based dilution assay. It counts as functional.
Data set [5] relates to Escherichia coli. Put plainly: Antibacterial activity Escherichia coli ATCC 25922 assessed as inhibition of bacterial growth incubated for 24 hrs by Muller hinton broth based dilution assay. It counts as functional.
The test system of data set [6] is Pseudomonas aeruginosa. Put plainly: Antibacterial activity Pseudomonas aeruginosa ATCC 9027 assessed as inhibition of bacterial growth incubated for 24 hrs by Muller hinton broth based dilution assay. It counts as functional.
In data set [7] the test system is Acinetobacter baumannii. Put plainly: Antibacterial activity against Acinetobacter baumannii R2889 assessed as inhIbition of bacterial growth incubated for 24 hrs by Muller hinton broth based dilution assay. In kind it is functional.
In data set [8] the test system is Staphylococcus aureus. Put plainly: Antibacterial activity against Staphylococcus aureus ATCC 29213 assessed as inhibition of bacterial growth incubated for 24 hrs in the presence of 12.5 ug/mL Zn2+ by Muller hinton broth based dilution assay. In kind it is functional.
The subject of data set [9] is Staphylococcus aureus. Put plainly: Antibacterial activity against Methicillin-resistant Staphylococcus aureus N315 assessed as inhibition of bacterial growth incubated for 24 hrs in the presence of 12.5 ug/mL Zn2+ by Muller hinton broth based dilution assay. In kind it is functional.
The test system of data set [10] is Staphylococcus aureus. Put plainly: Antibacterial activity against Methicillin-resistant Staphylococcus aureus NCTC10442 assessed as inhibition of bacterial growth incubated for 24 hrs in the presence of 12.5 ug/mL Zn2+ by Muller hinton broth based dilution assay. In kind it is functional.
For data set [11], the system named is Escherichia coli. Put plainly: Antibacterial activity Escherichia coli ATCC 25922 assessed as inhibition of bacterial growth incubated for 24 hrs in the presence of 12.5 ug/mL Zn2+ by Muller hinton broth based dilution assay. It counts as functional.
Data set [12] deals with Pseudomonas aeruginosa. Put plainly: Antibacterial activity Pseudomonas aeruginosa ATCC 9027 assessed as inhibition of bacterial growth incubated for 24 hrs in the presence of 12.5 ug/mL Zn2+ by Muller hinton broth based dilution assay. In kind it is functional.
For data set [13], the system named is Acinetobacter baumannii. Put plainly: Antibacterial activity against Acinetobacter baumannii ATCC 17978 assessed as inhIbition of bacterial growth incubated for 24 hrs in the presence of 12.5 ug/mL Zn2+ by Muller hinton broth based dilution assay. It counts as functional.
For data set [14], the system named is Acinetobacter baumannii. Put plainly: Antibacterial activity against Acinetobacter baumannii R2889 assessed as inhIbition of bacterial growth incubated for 24 hrs in the presence of 12.5 ug/mL Zn2+ by Muller hinton broth based dilution assay. It counts as functional.
The nature of data set [15]: Hemolytic activity in rabbit RBC incubated for 1 hrs by fluorescence based microplate reader assay. In kind it is toxicity, cell-based, Oryctolagus cuniculus, Erythrocyte. The note with it: rabbit red blood cells (erythrocytes).
Data set [16] is described as follows: Hemolytic activity in rabbit RBC incubated for 1 hrs in the presence of 12.5 ug/mL Zn2+ by fluorescence based microplate reader assay. In kind it is toxicity, cell-based, Oryctolagus cuniculus, Erythrocyte. Particulars: rabbit red blood cells (erythrocytes).

For `CC(C)=CCn1c2ccccc2c2c(OCC(O)CN(C)C)cccc21` (centres undefined), the minimum inhibitory concentration (MIC) in [1] was 12.5 µg/mL (≈ 35.5 µM); in data set [2] it was 6.25 µg/mL (≈ 17.7 µM); in [3], 6.25 µg/mL (≈ 17.7 µM); in data set [4] it was 6.25 µg/mL (≈ 17.7 µM); in data set [5], 25 µg/mL (≈ 70.9 µM); in data set [6] it was > 50 µg/mL. Further, the MIC in [7] is 12.5 µg/mL (≈ 35.5 µM); in data set [8], 6.25 µg/mL; in data set [9] it was 6.25 µg/mL; in data set [10], 6.25 µg/mL; in data set [11], 25 µg/mL; in data set [12] it was > 50 µg/mL. Besides, the minimal inhibitory concentration (MIC) in data set [13] and in data set [14] was 12.5 µg/mL throughout.

For `CCCCCn1c2ccccc2c2c(OCC(O)CN(Cc3ccccn3)Cc3ccccn3)cccc21` (centres undefined), the MIC was 3.12 µg/mL (≈ 6.14 µM) in data set [1]; 1.56 µg/mL (≈ 3.07 µM) in data set [2]; 1.56 µg/mL (≈ 3.07 µM) in [3]; 1.56 µg/mL (≈ 3.07 µM) in [4]; 6.25 µg/mL (≈ 12.3 µM) in data set [5]; > 50 µg/mL in data set [6]. Besides, the minimum inhibitory concentration (MIC) came out at 3.12 µg/mL (≈ 6.14 µM) in data set [7]; 1.56 µg/mL in data set [8]; 0.78 µg/mL in data set [9]; 0.78 µg/mL in data set [10]; 1.56 µg/mL in [11]; 6.25 µg/mL in data set [12]. Also, the MIC in [13] and in [14] was 3.12 µg/mL throughout. Besides, the concentration for 50% haemolysis (HC50) at 1 h in data set [15] and in data set [16] was > 200 µg/mL throughout.

As for `CC(C)=CCn1c2ccccc2c2c(OCC3CO3)cccc21` (centres undefined), the MIC in [1], in data set [2], in [3], in data set [4], in [5] and in [6] was > 50 µg/mL in each case. Moreover, the MIC in data set [7] is > 50 µg/mL. Moreover, the concentration for 50% haemolysis (HC50) at 1 h in data set [15] is > 200 µg/mL.

`FC(F)(F)CCCn1c2ccccc2c2c(OCC3CO3)cccc21` (centres undefined): the MIC in [1], in data set [2], in data set [3], in data set [4], in data set [5] and in data set [6] was > 50 µg/mL in each case. In addition, the MIC in [7] was > 50 µg/mL.

For `CCCCCCCCCn1c2ccccc2c2c(OCC3CO3)cccc21` (centres undefined), the minimal inhibitory concentration (MIC) in [1], in data set [2], in data set [3], in data set [4], in data set [5] and in data set [6] was > 50 µg/mL in each case. The MIC in [7] is > 50 µg/mL. Also, the HC50 at 1 h in [15] is > 200 µg/mL.

With `O=C(O)c1cn(C2CC2)c2cc(N3CCNCC3)c(F)cc2c1=O` [CIPROFLOXACIN], the minimum inhibitory concentration (MIC) in data set [1] worked out at 0.39 µg/mL (≈ 1.18 µM); in data set [2], 0.39 µg/mL (≈ 1.18 µM); in [3], 0.39 µg/mL (≈ 1.18 µM); in [4] it was 0.39 µg/mL (≈ 1.18 µM); in data set [5] it was 0.049 µg/mL (≈ 0.148 µM); in [6] it was 0.195 µg/mL (≈ 0.589 µM). The MIC amounted to 0.78 µg/mL (≈ 2.35 µM) in data set [7]; 0.39 µg/mL in [8]; 0.39 µg/mL in [9]; 0.39 µg/mL in data set [10]; 0.049 µg/mL in data set [11]; 0.195 µg/mL in [12]. Further, the minimal inhibitory concentration (MIC) in data set [13] was found to be 0.39 µg/mL; in [14] it was 0.78 µg/mL.

On to `CC(C)=CCn1c2ccccc2c2c(OCC(O)CNCc3ccccn3)cccc21` (centres undefined), for which the MIC in data set [1] was > 50 µg/mL; in [2] it was 6.25 µg/mL (≈ 15 µM); in data set [3], 6.25 µg/mL (≈ 15 µM); in [4], 6.25 µg/mL (≈ 15 µM); in data set [5], 50 µg/mL (≈ 120 µM); in data set [6], > 50 µg/mL. Moreover, the MIC in data set [7] was > 50 µg/mL; in data set [8], 3.12 µg/mL; in data set [9], 3.12 µg/mL; in data set [10] it was 6.25 µg/mL; in data set [11], > 50 µg/mL; in data set [12], > 50 µg/mL. In addition, the minimum inhibitory concentration (MIC) in data set [13] and in [14] was > 50 µg/mL each time. Also, the HC50 at 1 h in data set [15] and in data set [16] was > 200 µg/mL each time.

Consider `Cn1c2ccccc2c2c(OCC3CO3)cccc21` (centres undefined), for which the MIC in data set [1], in data set [2], in data set [3], in data set [4], in data set [5] and in [6] was > 50 µg/mL in each case. Also, the minimal inhibitory concentration (MIC) in data set [7] is > 50 µg/mL. Moreover, in [15], the concentration for 50% haemolysis (HC50) at 1 h was > 200 µg/mL.

Take `CCCn1c2ccccc2c2c(OCC(O)CN(Cc3ccccn3)Cc3ccccn3)cccc21` (centres undefined): the MIC is 6.25 µg/mL (≈ 13 µM) in data set [1]; 3.12 µg/mL (≈ 6.5 µM) in [2]; 1.56 µg/mL (≈ 3.25 µM) in data set [3]; 3.12 µg/mL (≈ 6.5 µM) in [4]; 12.5 µg/mL (≈ 26 µM) in [5]; > 50 µg/mL in [6]. Further, the MIC in data set [7] worked out at 6.25 µg/mL (≈ 13 µM); in data set [8], 0.78 µg/mL; in data set [9] it was 0.78 µg/mL; in data set [10] it was 1.56 µg/mL; in data set [11] it was 6.25 µg/mL; in [12], 6.25 µg/mL. The MIC came out at 3.12 µg/mL in data set [13] and 6.25 µg/mL in data set [14]. Besides, the 50% haemolytic concentration (HC50) at 1 h in [15] and in data set [16] was > 200 µg/mL throughout.

In the case of `OC(COc1cccc2[nH]c3ccccc3c12)CN(Cc1ccccn1)Cc1ccccn1` (centres undefined), the MIC in data set [1] was 50 µg/mL (≈ 114 µM); in data set [2], 25 µg/mL (≈ 57 µM); in data set [3], 25 µg/mL (≈ 57 µM); in [4] it was 25 µg/mL (≈ 57 µM); in data set [5] it was > 50 µg/mL; in [6], > 50 µg/mL. Also, the MIC in data set [7] was > 50 µg/mL; in data set [8], 6.25 µg/mL; in [9], 6.25 µg/mL; in data set [10], 12.5 µg/mL; in data set [11], > 50 µg/mL; in data set [12], 12.5 µg/mL. In addition, the MIC in [13] was 50 µg/mL; in [14], > 50 µg/mL. The concentration for 50% haemolysis (HC50) at 1 h in data set [15] and in [16] was > 200 µg/mL in each case.

For `CCN(CC)CC(O)COc1cccc2c1c1ccccc1n2CC=C(C)C` (centres undefined), the minimal inhibitory concentration (MIC) in data set [1] was 50 µg/mL (≈ 131 µM); in data set [2], 6.25 µg/mL (≈ 16.4 µM); in [3], 6.25 µg/mL (≈ 16.4 µM); in [4], 6.25 µg/mL (≈ 16.4 µM); in data set [5], > 50 µg/mL; in data set [6] it was > 50 µg/mL. The MIC in data set [7] is 25 µg/mL (≈ 65.7 µM); in [8], 6.25 µg/mL; in data set [9], 6.25 µg/mL; in data set [10], 6.25 µg/mL; in data set [11] it was 50 µg/mL; in data set [12], > 50 µg/mL. Besides, the MIC in data set [13] amounted to 50 µg/mL; in [14], 25 µg/mL.

For `CCCCCCCn1c2ccccc2c2c(OCC3CO3)cccc21` (centres undefined), the MIC in data set [1], in [2], in data set [3], in [4], in data set [5] and in data set [6] was > 50 µg/mL in each case. Moreover, the MIC in data set [7] is > 50 µg/mL. In addition, the concentration for 50% haemolysis (HC50) at 1 h in data set [15] is > 200 µg/mL.

For `c1ccc2c(c1)[nH]c1cccc(OCC3CO3)c12` (centres undefined), the MIC in data set [1], in data set [2], in data set [3], in data set [4], in data set [5] and in data set [6] was > 50 µg/mL in each case. For the same compound, the minimal inhibitory concentration (MIC) in data set [7] is > 50 µg/mL. Further, the HC50 at 1 h in data set [15] is > 200 µg/mL.

`CCCCCn1c2ccccc2c2c(OCC3CO3)cccc21` (centres undefined): the MIC in data set [1], in data set [2], in data set [3], in data set [4], in data set [5] and in data set [6] was > 50 µg/mL in each case. Moreover, the minimal inhibitory concentration (MIC) in [7] is > 50 µg/mL. In [15], the concentration for 50% haemolysis (HC50) at 1 h was > 200 µg/mL.

In the case of `CCCn1c2ccccc2c2c(OCC3CO3)cccc21` (centres undefined), the minimum inhibitory concentration (MIC) in [1], in data set [2], in data set [3], in [4], in [5] and in [6] was > 50 µg/mL in each case. Further, the MIC in data set [7] was > 50 µg/mL. For the same compound, the 50% haemolytic concentration (HC50) at 1 h in data set [15] is > 200 µg/mL.
